From ChEMBL document CHEMBL3351444, “Poliothrysoside and its derivatives as novel insulin sensitizers potentially driving AMPK activation and inhibiting adipogenesis” (Eur J Med Chem, 2014)
Activity calls are given as the source filed them. The calls are words filed in the database; no cut-off is given here.

Tests used:
3T3-L1 [1] = assay: Induction of [3H] 2-deoxyglucose uptake in chronic insulin resistant mouse 3T3L1 cells assessed as maximum uptake at 10 uM by liquid scintillation counting; type: functional
3T3-L1 [2] = assay: Induction of [3H] 2-deoxyglucose uptake in chronic insulin resistant mouse 3T3L1 cells assessed as maximum uptake by liquid scintillation counting; type: functional, cell-based
3T3-L1 [3] = assay: Induction of AMPK phosphorylation in mouse 3T3L1 cells at 10 uM by Western blot analysis; type: cell-based
3T3-L1 [4] = assay: Induction of AKT phosphorylation in mouse 3T3L1 cells at 10 uM by Western blot analysis; type: cell-based
3T3-L1 [5] = assay: Induction of [3H] 2-deoxyglucose uptake in chronic insulin resistant mouse 3T3L1 cells at 10 uM after 24 hrs by liquid scintillation counting in presence of AMPK inhibitor compound C; type: functional, cell-based
3T3-L1 [6] = assay: Inhibition of adipogenesis in mouse 3T3L1 cells assessed as reduction in lipid droplet formation at 20 uM by using Oil-Red O by microscopy; type: functional
3T3-L1 [7] = assay: Inhibition of adipogenesis in mouse 3T3L1 cells assessed as reduction in lipid droplet formation at 50 uM by using Oil-Red O by microscopy; type: functional
3T3-L1 [8] = assay: Inhibition of adipogenesis in mouse 3T3L1 cells assessed as reduction in lipid droplet formation at 10 uM by using Oil-Red O by microscopy; type: functional, cell-based
[9] = Toxicity in mouse 3T3L1 cells; type: cell-based; details: 3t3-l1
3T3-L1 [10] = assay: Inhibition of adipogenesis in mouse 3T3L1 cells assessed as reduction in lipid droplet formation by using Oil-Red O by microscopy; type: functional, cell-based
3T3-L1 [11] = assay: Induction of AMPK phosphorylation in mouse 3T3L1 cells at 1 mM by Western blot analysis; type: cell-based

CCOc1ccc(O[C@@H]2O[C@H](COC(=O)c3ccccc3)[C@@H](O)[C@H](O)[C@H]2O)c(CO)c1
Activity (3T3-L1 [1]): Active

O=C(COc1ccc(O[C@@H]2O[C@H](COC(=O)c3ccccc3)[C@@H](O)[C@H](O)[C@H]2O)c(CO)c1)c1ccc(Cl)cc1
Activity (3T3-L1 [1]): Active

O=C(COc1ccc(O[C@@H]2O[C@H](COC(=O)c3ccccc3)[C@@H](O)[C@H](O)[C@H]2O)c(CO)c1)c1ccccc1
Activity (3T3-L1 [1]): Active

O=C(OC[C@H]1O[C@@H](Oc2ccc(O)cc2CO)[C@H](O)[C@@H](O)[C@@H]1O)c1ccccc1
Activity (3T3-L1 [1]): Active

CC(=O)OCc1cc(OC(C)=O)ccc1O[C@@H]1O[C@H](COC(=O)c2ccccc2)[C@@H](OC(C)=O)[C@H](OC(C)=O)[C@H]1OC(C)=O
Activity (3T3-L1 [1]): 17.35 pmol/mg/min
Activity (3T3-L1 [2]): Dose-dependent effect
Activity (3T3-L1 [3]): Active
Activity (3T3-L1 [4]): inactive
Activity (3T3-L1 [5]): inactive
inhibition at 20 µM (3T3-L1 [6]): 20%
inhibition at 50 µM (3T3-L1 [7]): 64%
inhibition (3T3-L1 [8]): inactive
Activity [9]: Non-toxic
inhibition (3T3-L1 [10]): Dose-dependent effect

O=C(OC[C@H]1O[C@@H](Oc2ccc(OCc3ccccc3)cc2CO)[C@H](O)[C@@H](O)[C@@H]1O)c1ccccc1
Activity (3T3-L1 [1]): Active

CN(C)C(=N)NC(=N)N
Activity (3T3-L1 [11]): Active

O=C(OC[C@H]1O[C@@H](Oc2ccc(OCc3ccc([N+](=O)[O-])cc3)cc2CO)[C@H](O)[C@@H](O)[C@@H]1O)c1ccccc1
Activity (3T3-L1 [1]): Active
